The source of these data is US10821115B2, “Compounds that inhibit Mcl-1 protein” (priority 2017, dated 2020).

In general, IC50 refers to the concentration needed to halve the response being measured.

Molecules are shown by their SMILES. Where two headings read alike, the source gives them in different places.

The target in experiment [1] is recombinant human Mcl-1 (residues 171-327) / Bim interaction (Homo sapiens (Human), UniProt Q07820). Briefly: biochemical. It counts as binding. Particulars: read-out: Mcl-1 HTRF IC50.
Chain of recombinant human Mcl-1 (residues 171-327) / Bim interaction (Q07820 171-327): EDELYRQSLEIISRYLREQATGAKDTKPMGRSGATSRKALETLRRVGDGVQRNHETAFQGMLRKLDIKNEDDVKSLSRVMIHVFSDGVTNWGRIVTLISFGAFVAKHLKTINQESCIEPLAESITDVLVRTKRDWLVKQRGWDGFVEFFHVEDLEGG
The subject of experiment [2] is human multiple myeloma cell line, OPM-2. Briefly: Cell viability assay (OPM-2 10 FBS), CellTiter-Glo. It counts as cell-based. A digest of the protocol: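 Cells were seeded at 3000 cells/well in RPMI 1640 with 10% FBS and exposed to serially diluted compounds for 16 h at 37 °C, 5% CO2.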
For orientation: In ATP-based viability assays light output follows the ATP content of the culture.

Setting [3] is: TR-FRET, Mcl-1(171-327) / biotin-Bim (51-76).
Setting [4] is: Homo sapiens, OPM-2, 16 h, read-out: OPM-2 10% FBS IC50 IP, OPM-2 cells, 10% FBS, 16 h, CellTiter-Glo.
Setting [5] is: 0.1 nM Mcl-1(171-327), 0.05 nM biotin-Bim (51-76).
Where [6] appears, read: Homo sapiens, OPM-2, 16 h, read-out: OPM-2 10% FBS IC50 IP, OPM-2 cells, 10% FBS, 16 h incubation.

Regarding `CO[C@@]1(C2SCCCS2)CCC[C@H](C)[C@@H](C)S(=O)(=O)NC(=O)c2ccc3c(c2)N(C[C@@H]2CC[C@H]21)C[C@@]1(CCCc2cc(Cl)ccc21)CO3` [Example 100249, (1S,3′R,6′R,7′S,11′S,12′R)-6-chloro-7′-(1,3-dithian-2-yl)-7′-methoxy-11′,12′-dimethyl-3,4-dihydro-2H,15′H-spiro[naphthalene-1,22′-[20]oxa[13]thia[1,14]diazatetracyclo [14.7.2.0~3,6~.0~19,24~]pentacosa[16,18,24]trien]-15′-one 13′,13′-dioxide], the values for the IC50 in experiment [1] (setting [3]) and in experiment [2] (setting [4]) were 2.99 nM and 2270 nM, respectively.
As for `CCN1[C@H](C)CN(C[C@@]2(OC)/C=C/C[C@H](C)[C@@H](C)S(=O)(=O)NC(=O)c3ccc4c(c3)N(C[C@@H]3CC[C@H]32)C[C@@]2(CCCc3cc(Cl)ccc32)CO4)C[C@@H]1C` [Example 341, (1S,3′R,6′R,7′R,8′E,11′S,12′R)-6-chloro-7′-(((3R,5S)-4-ethyl-3,5-dimethyl-1-piperazinyl)methyl)-7′-methoxy-11′,12′-dimethyl-3,4-dihydro-2H,15′H-spiro[naphthalene-1,22′-[20]oxa[13]thia[1,14]diazatetracyclo [14.7.2.0~3,6~.0~19,24~]pentacosa[8,16,18,24]tetraen]-15′-one 13′,13′-dioxide], the values for the IC50 in experiment [1] (setting [5]) and in experiment [2] (setting [6]) were 0.052 nM and 42 nM, respectively.
For the compound `COC(=O)C[C@@]1(O)/C=C/C[C@H](C)[C@@H](C)S(=O)(=O)NC(=O)c2ccc3c(c2)N(C[C@@H]2CC[C@H]21)C[C@@]1(CCCc2cc(Cl)ccc21)CO3` [Example 100287, methyl ((1S,3′R,6′R,7′R,8′E,11′S,12′R)-6-chloro-7′-hydroxy-11′,12′-dimethyl-13′,13′-dioxido-15′-oxo-3,4-dihydro-2H-spiro[naphthalene-1,22′-[20]oxa[13]thia[1,14]diazatetracyclo [14.7.2.0~3,6~.0~19,24~]pentacosa[8,16,18,24]tetraen]-7′-yl)acetate], the figures for the concentration for half-maximal inhibition (IC50) in experiment [1] (setting [3]) and in experiment [2] (setting [4]) were 0.494 nM and 1870 nM, respectively.
On the same counts, the results for `C[C@@H]1[C@@H](C)C/C=C/[C@@](O)(c2nc(CO)nn2C)[C@@H]2CC[C@H]2CN2C[C@@]3(CCCc4cc(Cl)ccc43)COc3ccc(cc32)C(=O)NS1(=O)=O` [Example 100200, (1S,3′R,6′R,7′S,8′E,11′S,12′R)-6-chloro-7′-hydroxy-7′-(3-(hydroxymethyl)-1-methyl-1H-1,2,4-triazol-5-yl)-11′,12′-dimethyl-3,4-dihydro-2H,15′H-spiro[naphthalene-1,22′-[20]oxa[13]thia[1,14]diazatetracyclo [14.7.2.0~3,6~.0~19,24~]pentacosa[8,16,18,24]tetraen]-15′-one 13′,13′-dioxide] are 0.213 nM and 1070 nM.
For `C[C@@H]1[C@@H](C)CCC[C@](O)(CCN(C)C)[C@@H]2CC[C@H]2CN2C[C@@]3(CCCc4cc(Cl)ccc43)COc3ccc(cc32)C(=O)NS1(=O)=O` [Example 100088, (1S,3′R,6′R,7′S,11′S,12′R)-6-chloro-7′-(2-(dimethylamino)ethyl)-7′-hydroxy-11′,12′-dimethyl-3,4-dihydro-2H,15′H-spiro[naphthalene-1,22′-[20]oxa[13]thia[1,14]diazatetracyclo [14.7.2.0~3,6~.0~19,24~]pentacosa[16,18,24]trien]-15′-one 13′,13′-dioxide] the same measures were 2.12 nM and 1340 nM.
As for `CO[C@]1(CN2CC3(C2)CN(C(C)C)C3)/C=C/C[C@H](C)[C@@H](C)S(=O)(=O)NC(=O)c2ccc3c(c2)N(C[C@@H]2CC[C@H]21)C[C@@]1(CCCc2cc(Cl)ccc21)CO3` [Example 320, (1S,3′R,6′R,7′R,8′E,11′S,12′R)-6-chloro-7′-methoxy-11′,12′-dimethyl-7′-((6-(1-methylethyl)-2,6-diazaspiro[3.3]hept-2-yl)methyl)-3,4-dihydro-2H,15′H-spiro[naphthalene-1,22′-[20]oxa[13]thia[1,14]diazatetracyclo [14.7.2.0~3,6~.0~19,24~]pentacosa[8,16,18,24]tetraen]-15′-one 13′,13′-dioxide], the IC50 in experiment [1] (setting [5]) was 0.524 nM; in experiment [2] (setting [6]) it was 302 nM.
For `C/C=C/C[C@]1(OC)/C=C/C[C@H](C)[C@@H](C)S(=O)(=O)NC(=O)c2ccc3c(c2)N(C[C@@H]2CC[C@H]21)C[C@@]1(CCCc2cc(Cl)ccc21)CO3` [Example 100438, (1S,3′R,6′R,7′S,8′E,11′S,12′R)-7′-((2E)-2-buten-1-yl)-6-chloro-7′-methoxy-11′,12′-dimethyl-3,4-dihydro-2H,15′H-spiro[naphthalene-1,22′-[20]oxa[13]thia[1,14]diazatetracyclo [14.7.2.0~3,6~.0~19,24~]pentacosa[8,16,18,24]tetraen]-15′-one 13′,13′-dioxide], the IC50 in experiment [1] (setting [3]) is 0.169 nM; in experiment [2] (setting [4]), 547 nM.
For the compound `CC#C[C@@]1(O)/C=C/C[C@H](C)[C@@H](C)S(=O)(=O)NC(=O)c2ccc3c(c2)N(C[C@@H]2CC[C@H]21)C[C@@]1(CCCc2cc(Cl)ccc21)CO3` [Example 100498, (1S,3′R,6′R,7′R,8′E,11′S,12′R)-6-chloro-7′-hydroxy-11′,12′-dimethyl-7′-(1-propyn-1-yl)-3,4-dihydro-2H,15′H-spiro[naphthalene-1,22′-[20]oxa[13]thia[1,14]diazatetracyclo [14.7.2.0~3,6~.0~19,24~]pentacosa[8,16,18,24]tetraen]-15′-one 13′,13′-dioxide], the half-inhibitory concentration (IC50) was 0.885 nM in experiment [1] and 1660 nM in experiment [2] (setting [4]).
As to `C[C@@H]1[C@@H](C)C/C=C/[C@@](O)([C@@H](C)C(=O)N(C)C)[C@@H]2CC[C@H]2CN2C[C@@]3(CCCc4cc(Cl)ccc43)COc3ccc(cc32)C(=O)NS1(=O)=O` (single isomer, unassigned) [Example 100124], the IC50 in experiment [1] (setting [3]) came out at 0.323 nM; in experiment [2] (read-out: OPM-2 10% FBS IC50 IP, OPM-2 cells, 10% FBS, 16 h, CellTiter-Glo) it was 270 nM.
`C[C@@H]1[C@@H](C)CCC[C@@](O)(CC(=O)N2CCCC2)[C@@H]2CC[C@H]2CN2C[C@@]3(CCCc4cc(Cl)ccc43)COc3ccc(cc32)C(=O)NS1(=O)=O` [Example 100107, (1S,3′R,6′R,7′R,11′S,12′R)-6-chloro-7′-hydroxy-11′,12′-dimethyl-7′-(2-oxo-2-(1-pyrrolidinyl)ethyl)-3,4-dihydro-2H,15′H-spiro[naphthalene-1,22′-[20]oxa[13]thia[1,14]diazatetracyclo [14.7.2.0~3,6~.0~19,24~]pentacosa[16,18,24]trien]-15′-one 13′,13′-dioxide]: the IC50 in experiment [1] (setting [3]) is 0.296 nM; in experiment [2] (setting [4]), 181 nM.
On the same counts, the results for `C[C@@H]1CS(=O)(=O)NC(=O)c2ccc3c(c2)N(C[C@@H]2CC[C@H]2[C@](O)(C2SCCCS2)/C=C/[C@@H]1C)C[C@@]1(CCCc2cc(Cl)ccc21)CO3` [Example 100566, (1S,3′R,6′R,7′S,8′E,10′S,11′S)-6-chloro-7′-(1,3-dithian-2-yl)-7′-hydroxy-10′,11′-dimethyl-3,4-dihydro-2H,15′H-spiro[naphthalene-1,22′-[20]oxa[13]thia[1,14]diazatetracyclo [14.7.2.0~3,6~.0~19,24~]pentacosa[8,16,18,24]tetraen]-15′-one 13′,13′-dioxide] are 0.142 nM and 590 nM.
Take `CC[C@@H]1CC/C=C/[C@](CN2CCN3CCOC[C@@H]3C2)(OC)[C@@H]2CC[C@H]2CN2C[C@@]3(CCCc4cc(Cl)ccc43)COc3ccc(cc32)C(=O)NS1(=O)=O` [Example 28, (1S,3′R,6′R,7′S,8′E,12′R)-6-chloro-12′-ethyl-7′-((9aS)-hexahydropyrazino[2,1-c][1,4]oxazin-8(1H)-ylmethyl)-7′-methoxy-3,4-dihydro-2H,15′H-spiro[naphthalene-1,22′-[20]oxa[13]thia[1,14]diazatetracyclo [14.7.2.0~3,6~.0~19,24~]pentacosa[8,16,18,24]tetraen]-15′-one 13′,13′-dioxide]: the IC50 is 0.082 nM in experiment [1] (setting [5]) and 111 nM in experiment [2] (setting [6]).
For `COCC(=O)N1CCN(C[C@]2(OC)/C=C/C[C@H](C)[C@@H](C)S(=O)(=O)NC(=O)c3ccc4c(c3)N(C[C@@H]3CC[C@H]32)C[C@@]2(CCCc3cc(Cl)ccc32)CO4)CC1` [Example 246, (1S,3′R,6′R,7′S,8′E,11′S,12′R)-6-chloro-7′-methoxy-7′-((4-(methoxyacetyl)-1-piperazinyl)methyl)-11′,12′-dimethyl-3,4-dihydro-2H,15′H-spiro[naphthalene-1,22′-[20]oxa[13]thia[1,14]diazatetracyclo [14.7.2.0~3,6~.0~19,24~]pentacosa[8,16,18,24]tetraen]-15′-one 13′,13′-dioxide] the same measures were 0.099 nM and 138 nM.
Turning to `CCO[C@@]1(CN2CCN3CCCC[C@@H]3C2)/C=C/C[C@H](C)[C@@H](C)S(=O)(=O)NC(=O)c2ccc3c(c2)N(C[C@@H]2CC[C@H]21)C[C@@]1(CCCc2cc(Cl)ccc21)CO3` [Example 107, (1S,3′R,6′R,7′S,8′E,11′S,12′R)-6-chloro-7′-ethoxy-11′,12′-dimethyl-7′-((9aR)-octahydro-2H-pyrido[1,2-a]pyrazin-2-ylmethyl)-3,4-dihydro-2H,15′H-spiro[naphthalene-1,22′-[20]oxa[13]thia[1,14]diazatetracyclo [14.7.2.0~3,6~.0~19,24~]pentacosa[8,16,18,24]tetraen]-15′-one 13′,13′-dioxide], the results for the IC50 in experiment [1] (setting [5]) and in experiment [2] (setting [6]) were 1.14 nM and 872 nM, respectively.
